Results on 12 compounds are retold here after patent US12673945B2, “3-((8-((1H-pyrazol-4-yl)amino)imidazo[1,2-a]pyridin-3-yl)ethinyl)-n-phenylbenzamide derivative, method for preparing same, and pharmaceutical composition containing same as active ingredient for prevention or treatment of cancer” (DAEGU-GYEONGBUK MEDICAL INNOVATION FOUNDATION, priority 2020, dated 2026).

Common to all, as to format: cell-based
One test relates to T315I-TCCS cells. The test can be described thus: human CML cell proliferation inhibition. Conditions: 72 hours, Cell Counting Kit-8. The procedure: (§1) In order to evaluate the therapeutic effect of the compound according to the present invention on chronic myelogenous leukemia (CML), the following experiment was performed, and the results are shown in Table 6 below. Inhibitory activity to Bcr-Abl kinase was evaluated through the experiment using TCCS and KOPM28 cells, and inhibitory activity to T315I-Bcr-Abl kinase was evaluated through the experiment using T315I-TCCS and T315I-KOPM28 cells.
(§2) Human chronic myelogenous leukemia (CML) cells used in the experiment were TCCS, T315I-TCCS, KOPM28 and T315I-KOPM28, and the four types of cells were provided by University of Yamanashi.
(§3) Four types of human CML cells were each seeded in 96-well plates at the density of 1×10^4/90 μL/well. A culture solution containing 9 concentrations (0.000256 to 100 μM) of each example compound serially diluted in 5 folds or DMSO (control) were added to the plate (10 μL/well) to a final concentration of 0 to 10 μM. The plate was incubated in a 37° C. CO2 incubator for 72 hours.
(§4) After incubation for 72 hours, the plate treated with the compound was treated with Cell Counting Kit-8 (Dojindo Molecular Technologies, Inc) solution at the concentration of 10 μL/well, and then mixed well. Then, the plate was incubated in a CO2 incubator at 37° C. for 2 hours, and absorbance at 450 nm was measured with a microplate reader. Data were expressed as percentage compared to vehicle treated cells and GI50 values were calculated using GraphPad Prism 8.0 (GraphPad software Inc., San Diego).

The next test concerns KOPM28 cells. The test can be described thus: human CML cell proliferation inhibition. Conditions: 72 hours, Cell Counting Kit-8. The procedure:
as §1, §2, §3, §4

The subject of a further test is TCCS cells. The test can be described thus: human CML cell proliferation inhibition. As to conditions: 72 hours, Cell Counting Kit-8. As to the method:
as §1, §2, §3, §4
For orientation: Tetrazolium assays rely on reduction of a dye to a coloured formazan, in cell work by metabolically active cells.

Another test deals with T315I-KOPM28 cells. Nature of the test: human CML cell proliferation inhibition. Conditions: 72 hours, Cell Counting Kit-8. The procedure:
as §1, §2, §3, §4

The test system of a further test is T315I-Bcr-Abl (Ba/F3). Nature of the test: Ba/F3 cell proliferation inhibition. As to conditions: BaF3; 72 hours, Cell Counting Kit-8. As to the method: (§5) […] lymphocyte cells, Parental (Ba/F3) and T315I-Bcr-Abl (Ba/F3) were seeded in 96-well plates at the density of 1×10^4/90 μL/well. A culture solution containing 9 concentrations (0.015 to 100 μM) of each example compound serially diluted in 3 folds or DMSO (control) were added to the plate ([…]) to a final concentration of 0 to 10 μM. The plate was incubated in a 37° C. CO2 incubator for 72 hours.
(§6) After incubation for 72 hours, the plate treated with the compound was treated with Cell Counting Kit-8 (Dojindo Molecular Technologies, Inc) solution at the concentration of 10 μL/well, and then mixed well. Then, the plate was incubated in a CO2 incubator at 37° C. for 2 hours, and absorbance at 450 nm was measured with a microplate reader. Data were expressed as percentage compared to vehicle treated cells and GI50 values were calculated using GraphPad Prism 5.0 (GraphPad software Inc., San Diego) […].

The next test concerns Parental (Ba/F3). Nature of the test: Ba/F3 cell proliferation inhibition. Conditions: BaF3; 72 hours, Cell Counting Kit-8. The procedure:
as §5, §6

Take `Cc1cc(F)c(C(=O)Nc2cc(CN3CCC(N(C)C)C3)cc(C(C)(C)C#N)c2)cc1C#Cc1cnc2c(Nc3cnn(C)c3)cccn12` (stereo not drawn) [Example 29, N-(3-(2-cyanopropan-2-yl)-5-((3-(dimethylamino)pyrrolidin-1-yl)methyl)phenyl)-2-fluoro-4-methyl-5-((8-((1-methyl-1H-pyrazol-4-yl)amino)imidazo[1,2-a]pyridin-3-yl)ethynyl)benzamide]: the GI50 in the test with T315I-TCCS cells is 0.1 µM; in the test on KOPM28 cells, less than 0.01 µM; with TCCS cells, less than 0.01 µM; in the test with T315I-KOPM28 cells, 0.1 µM; with T315I-Bcr-Abl (Ba/F3), 0.05 to 0.5 µM; in the test on Parental (Ba/F3) it was 0.5 to 5 µM.
Regarding `Cc1cc(F)c(C(=O)Nc2cc(CN3CCCN(C)CC3)cc(C(C)(C)C#N)c2)cc1C#Cc1cnc2c(Nc3cnn(C)c3)cccn12` [Example 30, N-(3-(2-cyanopropan-2-yl)-5-((4-methyl-1,4-diazepan-1-yl)methyl)phenyl)-2-fluoro-4-methyl-5-((8-((1-methyl-1H-pyrazol-4-yl)amino)imidazo[1,2-a]pyridin-3-yl)ethynyl)benzamide], the GI50 with T315I-TCCS cells was 0.1 µM; in the test with KOPM28 cells, less than 0.01 µM; with TCCS cells, less than 0.01 µM; in the test with T315I-KOPM28 cells, more than 0.1 µM; in the test with T315I-Bcr-Abl (Ba/F3), 0.05 to 0.5 µM; with Parental (Ba/F3) it was 0.5 to 5 µM.
Turning to `Cc1cc(F)c(C(=O)Nc2cc(CN3CCC(C(F)(F)F)CC3)cc(C(C)(C)C#N)c2)cc1C#Cc1cnc2c(Nc3cnn(C)c3)cccn12` [Example 31, N-(3-(2-cyanopropan-2-yl)-5-((4-(trifluoromethyl)piperidin-1-yl)methyl)phenyl)-2-fluoro-4-methyl-5-((8-((1-methyl-1H-pyrazol-4-yl)amino)imidazo[1,2-a]pyridin-3-yl)ethynyl)benzamide], the concentration for 50% growth inhibition (GI50) in the test with T315I-TCCS cells is more than 0.1 µM; with KOPM28 cells, less than 0.01 µM; with TCCS cells, less than 0.01 µM; in the test on T315I-KOPM28 cells it was more than 0.1 µM; in the test with T315I-Bcr-Abl (Ba/F3), 0.05 to 0.5 µM; in the test on Parental (Ba/F3) it was more than 5 µM.
With `Cc1cc(F)c(C(=O)Nc2cc(CN3CCN(CC(F)(F)F)CC3)cc(C(C)(C)C#N)c2)cc1C#Cc1cnc2c(Nc3cnn(C)c3)cccn12` [Example 32, N-(3-(2-cyanopropan-2-yl)-5-((4-(2,2,2-trifluoroethyl)piperazin-1-yl)methyl)phenyl)-2-fluoro-4-methyl-5-((8-((1-methyl-1H-pyrazol-4-yl)amino)imidazo[1,2-a]pyridin-3-yl)ethynyl)benzamide], the GI50 is more than 0.1 µM in the test with T315I-TCCS cells; less than 0.01 µM in the test on KOPM28 cells; less than 0.01 µM in the test with TCCS cells; more than 0.1 µM with T315I-KOPM28 cells; 0.05 to 0.5 µM in the test with T315I-Bcr-Abl (Ba/F3); more than 5 µM with Parental (Ba/F3).
`Cc1cc(F)c(C(=O)Nc2cc(CN3CCN(C(C)C)CC3)cc(C(C)(C)C#N)c2)cc1C#Cc1cnc2c(Nc3cnn(C)c3)cccn12` [Example 33, N-(3-(2-cyanopropan-2-yl)-5-((4-isopropylpiperazin-1-yl)methyl)phenyl)-2-fluoro-4-methyl-5-((8-((1-methyl-1H-pyrazol-4-yl)amino)imidazo[1,2-a]pyridin-3-yl)ethynyl)benzamide]: the concentration for 50% growth inhibition (GI50) in the test with T315I-TCCS cells was 0.1 µM; in the test with KOPM28 cells, less than 0.01 µM; with TCCS cells, less than 0.01 µM; in the test on T315I-KOPM28 cells, more than 0.1 µM; in the test with T315I-Bcr-Abl (Ba/F3), 0.05 to 0.5 µM; in the test with Parental (Ba/F3), 0.5 to 5 µM.
For the compound `Cc1cc(F)c(C(=O)Nc2cc(CN3CCN(S(C)(=O)=O)CC3)cc(C(C)(C)C#N)c2)cc1C#Cc1cnc2c(Nc3cnn(C)c3)cccn12` [Example 34, N-(3-(2-cyanopropan-2-yl)-5-((4-(methylsulfonyl)piperazin-1-yl)methyl)phenyl)-2-fluoro-4-methyl-5-((8-((1-methyl-1H-pyrazol-4-yl)amino)imidazo[1,2-a]pyridin-3-yl)ethynyl)benzamide], the 50% growth inhibitory concentration (GI50) is 0.1 µM with T315I-TCCS cells; less than 0.01 µM in the test on KOPM28 cells; less than 0.01 µM in the test with TCCS cells; more than 0.1 µM in the test on T315I-KOPM28 cells; 0.05 to 0.5 µM in the test with T315I-Bcr-Abl (Ba/F3); more than 5 µM in the test on Parental (Ba/F3).
For the compound `Cc1cc(F)c(C(=O)Nc2cc(CN3CCN(C)C(=O)C3)cc(C(C)(C)C#N)c2)cc1C#Cc1cnc2c(Nc3cnn(C)c3)cccn12` [Example 35, N-(3-(2-cyanopropan-2-yl)-5-((4-methyl-3-oxopiperazin-1-yl)methyl)phenyl)-2-fluoro-4-methyl-5-((8-((1-methyl-1H-pyrazol-4-yl)amino)imidazo[1,2-a]pyridin-3-yl)ethynyl)benzamide], the 50% growth inhibitory concentration (GI50) was more than 0.1 µM in the test with T315I-TCCS cells; less than 0.01 µM in the test with KOPM28 cells; less than 0.01 µM with TCCS cells; more than 0.1 µM with T315I-KOPM28 cells; 0.05 to 0.5 µM with T315I-Bcr-Abl (Ba/F3); 0.5 to 5 µM with Parental (Ba/F3).
In the case of `Cc1cc(F)c(C(=O)Nc2cc(CN3CC(OC(C)C)C3)cc(C(C)(C)C#N)c2)cc1C#Cc1cnc2c(Nc3cnn(C)c3)cccn12` [Example 36, N-(3-(2-cyanopropan-2-yl)-5-((3-isopropoxyazetidin-1-yl)methyl)phenyl)-2-fluoro-4-methyl-5-((8-((1-methyl-1H-pyrazol-4-yl)amino)imidazo[1,2-a]pyridin-3-yl)ethynyl)benzamide], the GI50 in the test with T315I-TCCS cells was 0.1 µM; in the test on KOPM28 cells it was less than 0.01 µM; with TCCS cells, less than 0.01 µM; in the test on T315I-KOPM28 cells it was 0.1 µM; in the test on T315I-Bcr-Abl (Ba/F3), 0.05 to 0.5 µM; in the test with Parental (Ba/F3) it was more than 5 µM.
In the case of `Cc1cc(F)c(C(=O)Nc2cc(Cn3ccnc3)cc(C(C)(C)C#N)c2)cc1C#Cc1cnc2c(Nc3cnn(C)c3)cccn12` [Example 37, N-(3-((1H-imidazol-1-yl)methyl)-5-(2-cyanopropan-2-yl)phenyl)-2-fluoro-4-methyl-5-((8-((1-methyl-1H-pyrazol-4-yl)amino)imidazo[1,2-a]pyridin-3-yl)ethynyl)benzamide], the GI50 in the test with T315I-TCCS cells is 0.1 µM; in the test with KOPM28 cells, less than 0.01 µM; in the test with TCCS cells, less than 0.01 µM; in the test on T315I-KOPM28 cells it was 0.1 µM; in the test on T315I-Bcr-Abl (Ba/F3) it was 0.05 to 0.5 µM; with Parental (Ba/F3), more than 5 µM.
Take `Cc1cc(F)c(C(=O)Nc2cc(Cn3cncn3)cc(C(C)(C)C#N)c2)cc1C#Cc1cnc2c(Nc3cnn(C)c3)cccn12` [Example 38, N-(3-((1H-1,2,4-triazol-1-yl)methyl)-5-(2-cyanopropan-2-yl)phenyl)-2-fluoro-4-methyl-5-((8-((1-methyl-1H-pyrazol-4-yl)amino)imidazo[1,2-a]pyridin-3-yl)ethynyl)benzamide]: the concentration for 50% growth inhibition (GI50) in the test with T315I-TCCS cells is less than 0.01 µM; with KOPM28 cells, less than 0.01 µM; in the test with TCCS cells it was less than 0.01 µM; with T315I-KOPM28 cells, 0.1 µM; with T315I-Bcr-Abl (Ba/F3), less than 0.05 µM; in the test with Parental (Ba/F3), more than 5 µM.
In the case of `Cc1cc(F)c(C(=O)Nc2ccc(CN3CCN(C)CC3)c(C(C)(C)C#N)c2)cc1C#Cc1cnc2c(Nc3cnn(C)c3)cccn12` [Example 39, N-(3-(2-cyanopropan-2-yl)-4-((4-methylpiperazin-1-yl)methyl)phenyl)-2-fluoro-4-methyl-5-((8-((1-methyl-1H-pyrazol-4-yl)amino)imidazo[1,2-a]pyridin-3-yl)ethynyl)benzamide], the GI50 was 0.1 µM with T315I-TCCS cells; less than 0.01 µM in the test on KOPM28 cells; less than 0.01 µM with TCCS cells; 0.1 µM in the test on T315I-KOPM28 cells; less than 0.05 µM with T315I-Bcr-Abl (Ba/F3); more than 5 µM in the test with Parental (Ba/F3).
`Cc1cc(F)c(C(=O)Nc2ccc(CN3CCOCC3)c(C(C)(C)C#N)c2)cc1C#Cc1cnc2c(Nc3cnn(C)c3)cccn12` [Example 40, N-(3-(2-cyanopropan-2-yl)-4-(morpholinomethyl)phenyl)-2-fluoro-4-methyl-5-((8-((1-methyl-1H-pyrazol-4-yl)amino)imidazo[1,2-a]pyridin-3-yl)ethynyl)benzamide]: the GI50 was more than 0.1 µM in the test on T315I-TCCS cells; less than 0.01 µM in the test with KOPM28 cells; less than 0.01 µM in the test with TCCS cells; more than 0.1 µM in the test with T315I-KOPM28 cells; 0.05 to 0.5 µM with T315I-Bcr-Abl (Ba/F3); more than 5 µM in the test with Parental (Ba/F3).

As usually defined, the GI50 is the concentration giving 50% growth inhibition.
